IC50 data for 4 compounds are collected here from patent US20240132522A1, “HETEROCYCLIC COMPOUNDS AND METHODS OF USE THEREOF” (1cBio, Inc., priority 2022, published 2024).

Structures can show the parent of a compound that is named as a salt.

Chain of recombinant human PARP1 (P09874 whole entry): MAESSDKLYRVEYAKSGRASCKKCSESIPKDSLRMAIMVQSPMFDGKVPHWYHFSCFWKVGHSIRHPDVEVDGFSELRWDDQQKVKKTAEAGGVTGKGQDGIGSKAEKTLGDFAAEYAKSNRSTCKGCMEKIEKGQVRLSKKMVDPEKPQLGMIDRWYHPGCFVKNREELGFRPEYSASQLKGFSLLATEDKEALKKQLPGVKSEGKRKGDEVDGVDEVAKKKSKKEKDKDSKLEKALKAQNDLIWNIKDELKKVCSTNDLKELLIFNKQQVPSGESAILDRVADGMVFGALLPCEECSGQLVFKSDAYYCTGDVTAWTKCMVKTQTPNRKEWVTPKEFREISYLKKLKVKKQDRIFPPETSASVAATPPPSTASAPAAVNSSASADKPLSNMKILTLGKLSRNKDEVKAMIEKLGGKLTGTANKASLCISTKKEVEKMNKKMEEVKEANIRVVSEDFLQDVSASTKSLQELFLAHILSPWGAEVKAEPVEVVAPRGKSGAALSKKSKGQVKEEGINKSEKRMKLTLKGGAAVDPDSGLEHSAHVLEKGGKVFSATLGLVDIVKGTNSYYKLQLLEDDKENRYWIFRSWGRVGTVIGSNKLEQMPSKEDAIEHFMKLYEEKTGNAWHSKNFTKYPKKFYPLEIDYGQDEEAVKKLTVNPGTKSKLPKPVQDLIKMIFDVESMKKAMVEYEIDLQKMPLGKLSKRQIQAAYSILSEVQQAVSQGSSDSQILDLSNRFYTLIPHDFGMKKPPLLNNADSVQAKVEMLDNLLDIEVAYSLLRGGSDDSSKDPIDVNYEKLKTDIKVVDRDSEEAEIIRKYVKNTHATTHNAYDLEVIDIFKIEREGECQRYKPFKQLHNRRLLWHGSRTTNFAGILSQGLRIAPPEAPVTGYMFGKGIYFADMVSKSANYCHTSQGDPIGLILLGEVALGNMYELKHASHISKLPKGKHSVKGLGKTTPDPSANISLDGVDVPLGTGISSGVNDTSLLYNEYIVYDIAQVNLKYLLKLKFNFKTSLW

The experiment concerns the target recombinant human PARP1 (Homo sapiens, UniProt P09874). In words: PARP1 fluorescence polarization binding assay. The note with it: binding IC50, GST-tagged PARP1 20 nM, PARPi-FL probe 3 nM, 4 h at RT. The protocol:
In some embodiments, the biological assay is described in the Examples herein. In some embodiments, the biological assay measures PARP-1 binding by way of fluorescence polarization measurements. In some embodiments, binding of a test compound to recombinant human PARP-1 reduces the amount of binding of a fluorescent probe, and consequently reduces the detected level of fluorescence polarization. In some test compound stock solutions are prepared in a solvent, e.g., DMSO, and are serially diluted into a range of concentrations, e.g., 15 concentrations, 14 concentrations, 13 concentrations, 12 concentrations, 11 concentrations, 10 concentrations, 9 concentrations, 8 concentrations, 7 concentrations, 6 concentrations, or 5 concentrations, by a dilution factor, e.g., a 10-fold dilution factor, a 9-fold dilution factor, an 8-fold dilution factor, a 7-fold dilution factor, a 6-fold dilution factor, a 5-fold dilution factor, a 4-fold dilution factor, a 3-fold dilution factor, or a 2-fold dilution factor. In some embodiments, the serial dilutions, e.g., 100 nL of serial dilution, 90 nL of serial dilution, 80 nL of serial dilution, 70 nL of serial dilution, 60 nL of serial dilution, 50 nL of serial dilution, 30 nL of serial dilution, 20 nL of serial dilution, or 10 nL of serial dilution, are added to a multi-welled plate, e.g., a 1536-well plate, a 384-well plate, or a 96-well plate. In some embodiments, PARP-1, e.g., GST-tagged PARP-1, is diluted in assay buffer, e.g., 50 μL of assay buffer, 40 μL of assay buffer, e.g., 30 μL of assay buffer, 20 μL of assay buffer, 10 μL of assay buffer, or 5 μL of assay buffer, and is added to the plate. In some embodiments, the plate is centrifuged, e.g., at 1000 rpm for 1 min, and incubated, e.g., incubated for 30 minutes at room temperature (RT). In some embodiments, a fluorescent probe, e.g., 10 μL of 6 nM PARPi-FL (TOCRIS, Cat #6461), is diluted in an assay buffer and is added to the plate. In some embodiments, the final concentrations of PARP-1 and fluorescent probe are 20 nM and 3 nM, respectively, in a total volume of 20 μL. In some embodiments, the plate is centrifuged, e.g., at 1000 rpm for 1 minute, and the assay plate is incubated, e.g., for 4 h at RT. In some embodiments, the samples in each well are read using a plate reader, e.g., an Envision instrument using excitation=480 nm, and emission wavelength=FITC FP-P pol 535 nm & FITC FP-S pol 535 nm). In some embodiments, percent inhibition is calculated from mP values using Inhibition (%)=[1−(mPc−mPL)/(mPH−mPL)]×100%, where mPc, mPL, and mPH are the mP values of test compound, Low controls, and High controls, respectively. In some embodiments, binding IC50 values are calculated using XLFit (equation 201: y=A+((B−A)/(1+((x/C)^D))), where A=bottom, B=top, C=IC50, and D=slope) with a floating top and bottom for curves.
Compounds of the present disclosure were tested in a PARP1 fluorescence polarization binding assay at Pharmaron (Beijing, P.R. China). In this biochemical assay, binding of test compound to recombinant human PARP1 reduces the amount of binding of a fluorescent probe, and consequently reduces the detected level of fluorescence polarization. Test compound stock solutions were prepared in DMSO and then serially diluted into 10 concentrations by 3-fold dilution in a 384-well plate using a TECAN EVO200. 60 nL of each dilution was transferred to the plate using an Echo550 (Labcyte), and then 10 μL 40 nM GST-tagged PARP1 (BPS Bioscience, Cat #80501), diluted in assay buffer (50 mM Tris pH 8.0, 0.001% Triton X-100, 10 mM MgCl2, 150 mM NaCl), was added to the plate. After a centrifugation at 1000 rpm for 1 min, the assay plate was incubated for 30 min at RT. 10 μL 6 nM PARPi-FL (TOCRIS, Cat #6461), diluted using assay buffer, was then added to the plate. The final concentrations of PARP1 and PARPi-FL were 20 nM and 3 nM, respectively, in a total volume of 20 μL. […]
In general terms: Polarisation of emitted light reports the rotation of a fluorescent probe.
As usually defined, the IC50 is the midpoint of a concentration-inhibition curve. For `CCc1cc2ncc(CN3CCCN(c4ccc(C(=O)NC)nc4)CC3)cc2[nH]c1=O` [Compound No. 6, 5-(4-((7-ethyl-6-oxo-5H-1,5-naphthyridin-3-yl)methyl)-1,4-diazepan-1-yl)-N-methylpyridine-2-carboxamide], the half-inhibitory concentration (IC50) was less than 100 nM. Turning to `CCc1cc2ncc(CN3CC4CN(c5ccc(C(=O)NC)nc5)CC4C3)cc2[nH]c1=O` (stereo not shown) [Compound No. 7, 5-(5-((7-ethyl-6-oxo-5,6-dihydro-1,5-naphthyridin-3-yl)methyl)hexahydropyrrolo[3,4-c]pyrrol-2(1H)-yl)-N-methylpicolinamide], the half-inhibitory concentration (IC50) was 100 to 3000 nM. Take `CCc1cc2ncc(CN3CC4(C3)CN(c3ccc(C(=O)NC)nc3)C4)cc2[nH]c1=O` [Compound No. 9, 5-(6-((7-ethyl-6-oxo-5,6-dihydro-1,5-naphthyridin-3-yl)methyl)-2,6-diazaspiro[3.3]heptan-2-yl)-N-methylpicolinamide formate]: the IC50 was less than 100 nM.

Turning to `CCc1cc2ncc(CNC3CC(Nc4ccc(C(=O)NC)nc4)C3)cc2[nH]c1=O` (stereo not shown) [Compound No. 29, 5-((3-(((7-ethyl-6-oxo-5,6-dihydro-1,5-naphthyridin-3-yl)methyl)amino)cyclobutyl)amino)-N-methylpicolinamide], the IC50 lay within 100 to 3000 nM.
